The numbers were not newly measured in patent publication US20040019115A1, “Use of milnacipran for the treatment of tension-type headache” (priority 2002, published 2004), which cites them from elsewhere.

For this series the following is noted: patients with chronic tension-type headache, prophylactic treatment.

Molecules are shown by their SMILES.

Turning to `CN(C)CCC=C1c2ccccc2CCc2ccccc21` [Amitriptyline], the reduction of headache is 30%.
